In patent publication US12390437B2, “Itaconic acid derivatives and uses thereof intreating an inflammatory disease or a disease associated with an undesirable immune response” (Sitryx Therapeutics Limited, priority 2019, dated 2025):
Structures can show the parent of a compound that is named as a salt.

System: not listed separately
Assay: Mouse pharmacokinetic study, oral administration
Format: in vivo
Details: male, C57BL/6, mouse, plasma, po, 100 mg/kg, plasma, male C57BL/6 mice, oral gavage 100 mg/kg, 0.25 h; read-out: Parent compound concentrations following oral administration, Time 0.25 h
Method in brief: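 Oral arm: 100 mg/kg gavage in 5% DMSO with 0.5% HPMC/0.1% Tween 80, blood from 5 min to 24 h. Intravenous arm: 10 mg/kg tail-vein injection in 10% DMSO with HP-β-CD, blood from 3 min to 8 h. Male C57BL/6 mice; LC-MS/MS on plasma.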
C=C(CC(=O)OCCCCCCCC)C(=O)OCCC(=O)O [Example 80, 3-((2-methylene-4-(octyloxy)-4-oxobutanoyl)oxy)propanoic Acid] showed a concentration at 0.25 h of 850 ng/mL. For C=C(CC(=O)OCCCOc1ccccc1)C(=O)OCCC(=O)O [Example 86, 3-((2-methylene-4-oxo-4-(3-phenoxypropoxy)butanoyl)oxy)propanoic acid], the concentration at 0.25 h was 41 ng/mL.

Same assay, conditions: male, C57BL/6, mouse, plasma, po, 100 mg/kg, plasma, male C57BL/6 mice, oral gavage 100 mg/kg, 0.5 h; read-out: Parent compound concentrations following oral administration, Time 0.5 h
C=C(CC(=O)OCCCCCCCC)C(=O)OCCC(=O)O [Example 80, 3-((2-methylene-4-(octyloxy)-4-oxobutanoyl)oxy)propanoic Acid] gave a concentration at 0.5 h of 1150 ng/mL. For C=C(CC(=O)OCCCOc1ccccc1)C(=O)OCCC(=O)O [Example 86, 3-((2-methylene-4-oxo-4-(3-phenoxypropoxy)butanoyl)oxy)propanoic acid], the concentration at 0.5 h was 943 ng/mL.

Same assay, conditions: male, C57BL/6, mouse, plasma, po, 100 mg/kg, plasma, male C57BL/6 mice, oral gavage 100 mg/kg, 1 h; read-out: Parent compound concentrations following oral administration, Time 1 h
Work on C=C(CC(=O)OCCCCCCCC)C(=O)OCCC(=O)O [Example 80, 3-((2-methylene-4-(octyloxy)-4-oxobutanoyl)oxy)propanoic Acid] yielded a concentration at 1 h of 715 ng/mL. C=C(CC(=O)OCCCOc1ccccc1)C(=O)OCCC(=O)O [Example 86, 3-((2-methylene-4-oxo-4-(3-phenoxypropoxy)butanoyl)oxy)propanoic acid] gave a concentration at 1 h of 686 ng/mL.

Same assay, conditions: male, C57BL/6, mouse, plasma, po, 100 mg/kg, plasma, male C57BL/6 mice, oral gavage 100 mg/kg, 2 h; read-out: Parent compound concentrations following oral administration, Time 2 h
Work on C=C(CC(=O)OCCCCCCCC)C(=O)OCCC(=O)O [Example 80, 3-((2-methylene-4-(octyloxy)-4-oxobutanoyl)oxy)propanoic Acid] yielded a concentration at 2 h of 173 ng/mL. For C=C(CC(=O)OCCCOc1ccccc1)C(=O)OCCC(=O)O [Example 86, 3-((2-methylene-4-oxo-4-(3-phenoxypropoxy)butanoyl)oxy)propanoic acid], the concentration at 2 h was 149 ng/mL.

Same assay, conditions: male, C57BL/6, mouse, plasma, po, 100 mg/kg, plasma, male C57BL/6 mice, oral gavage 100 mg/kg, 4 h; read-out: Parent compound concentrations following oral administration, Time 4 h
With C=C(CC(=O)OCCCCCCCC)C(=O)OCCC(=O)O [Example 80, 3-((2-methylene-4-(octyloxy)-4-oxobutanoyl)oxy)propanoic Acid] the concentration at 4 h was 67 ng/mL. Work on C=C(CC(=O)OCCCOc1ccccc1)C(=O)OCCC(=O)O [Example 86, 3-((2-methylene-4-oxo-4-(3-phenoxypropoxy)butanoyl)oxy)propanoic acid] yielded a concentration at 4 h of 19 ng/mL.

Same assay, conditions: male, C57BL/6, mouse, plasma, po, 100 mg/kg, plasma, male C57BL/6 mice, oral gavage 100 mg/kg, 8 h; read-out: Parent compound concentrations following oral administration, Time 8 h
Compound C=C(CC(=O)OCCCCCCCC)C(=O)OCCC(=O)O [Example 80, 3-((2-methylene-4-(octyloxy)-4-oxobutanoyl)oxy)propanoic Acid] has a concentration at 8 h of under 1.5 ng/mL. With C=C(CC(=O)OCCCOc1ccccc1)C(=O)OCCC(=O)O [Example 86, 3-((2-methylene-4-oxo-4-(3-phenoxypropoxy)butanoyl)oxy)propanoic acid] the concentration at 8 h was under 3 ng/mL.

Same assay, conditions: male, C57BL/6, mouse, plasma, po, 100 mg/kg, plasma, male C57BL/6 mice, oral gavage 100 mg/kg, 24 h; read-out: Parent compound concentrations following oral administration, Time 24 h
Work on C=C(CC(=O)OCCCCCCCC)C(=O)OCCC(=O)O [Example 80, 3-((2-methylene-4-(octyloxy)-4-oxobutanoyl)oxy)propanoic Acid] yielded a concentration at 24 h of under 1.5 ng/mL. In the case of C=C(CC(=O)OCCCOc1ccccc1)C(=O)OCCC(=O)O [Example 86, 3-((2-methylene-4-oxo-4-(3-phenoxypropoxy)butanoyl)oxy)propanoic acid], the concentration at 24 h is reported as under 3 ng/mL.

System: IL-6 cytokine output from THP-1s
Assay: THP-1 AlphaLISA IL-6 cytokine assay
Format: cell-based, human
Details: Homo sapiens; PMA-differentiated THP-1 cells, LPS 24 hr then Nigericin 1 hour
Method in brief: (§1)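 PMA-differentiated (72 h) THP-1 cells pretreated 30 min with compound, LPS-stimulated 24 h, then nigericin 1 h at 37 °C. Supernatant IL-1β and IL-6 by AlphaLISA; % inhibition normalised to ±LPS controls, IC50 from concentration-response curves.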
In the case of C=C(CC(=O)OCCCCCCCC)C(=O)OCCC(F)(F)F [Example 3, 4-octyl 1-(3,3,3-trifluoropropyl) 2-methylenesuccinate], the IC50 is reported as 56.2 µM. C=C(CC(=O)OCCCCCCCC)C(=O)OCCN1C(=O)CCC1=O [Example 9, 1-(2-(2,5-dioxopyrrolidin-1-yl)ethyl) 4-octyl 2-methylenesuccinate] gave an IC50 of 2.2 µM. For COC(=O)/C=C/C(=O)OC [dimethyl fumarate, reference compound], the IC50 was 9.3 µM. With C=C(CC(=O)OCCCCCCCC)C(=O)OC1COC1 [Example 4, 4-octyl 1-(oxetan-3-yl) 2-methylenesuccinate] the IC50 was 3.6 µM. Compound C=C(CC(=O)OCCCCCCCC)C(=O)OCCS(C)(=O)=O [Example 2, 1-(2-(methylsulfonyl)ethyl) 4-octyl 2-methylenesuccinate] has an IC50 of 2.9 µM. In the case of C=C(CC(=O)OCCCCCCCC)C(=O)OCCC#N [Example 1, 1-(2-cyanoethyl) 4-octyl 2-methylenesuccinate], the IC50 is reported as 6 µM. Compound C=C(CC(=O)OCCCCCCCC)C(=O)OCCC(=O)O [Example 80, 3-((2-methylene-4-(octyloxy)-4-oxobutanoyl)oxy)propanoic Acid] has an IC50 of 5.3 µM. In the case of C=C(CC(=O)OCCCOc1ccccc1)C(=O)OCCC(=O)O [Example 86, 3-((2-methylene-4-oxo-4-(3-phenoxypropoxy)butanoyl)oxy)propanoic acid], the IC50 is reported as 15.7 µM.

System: IL-1β cytokine output from THP-1s
Assay: THP-1 AlphaLISA IL-1β cytokine assay
Format: cell-based, human
Details: Homo sapiens, THP-1, PMA-differentiated THP-1 cells, LPS 24 hr then Nigericin 1 hour; read-out: IL-1β (IC50)
Method in brief: as §1
With C=C(CC(=O)OCCCCCCCC)C(=O)OCCC(F)(F)F [Example 3, 4-octyl 1-(3,3,3-trifluoropropyl) 2-methylenesuccinate] the IC50 was 15.6 µM. C=C(CC(=O)OCCCCCCCC)C(=O)OCCN1C(=O)CCC1=O [Example 9, 1-(2-(2,5-dioxopyrrolidin-1-yl)ethyl) 4-octyl 2-methylenesuccinate] showed an IC50 of 4.7 µM. In the case of COC(=O)/C=C/C(=O)OC [dimethyl fumarate, reference compound], the IC50 is reported as 14.4 µM. For C=C(CC(=O)OCCCCCCCC)C(=O)OC1COC1 [Example 4, 4-octyl 1-(oxetan-3-yl) 2-methylenesuccinate], the IC50 was 9.3 µM. Compound C=C(CC(=O)OCCCCCCCC)C(=O)OCCS(C)(=O)=O [Example 2, 1-(2-(methylsulfonyl)ethyl) 4-octyl 2-methylenesuccinate] has an IC50 of 5 µM. Compound C=C(CC(=O)OCCCCCCCC)C(=O)OCCC#N [Example 1, 1-(2-cyanoethyl) 4-octyl 2-methylenesuccinate] has an IC50 of 9.3 µM. Work on C=C(CC(=O)OCCCCCCCC)C(=O)OCCC(=O)O [Example 80, 3-((2-methylene-4-(octyloxy)-4-oxobutanoyl)oxy)propanoic Acid] yielded an IC50 of 9.6 µM. In the case of C=C(CC(=O)OCCCOc1ccccc1)C(=O)OCCC(=O)O [Example 86, 3-((2-methylene-4-oxo-4-(3-phenoxypropoxy)butanoyl)oxy)propanoic acid], the IC50 is reported as 100 µM.

Same assay, conditions: Homo sapiens, THP-1, Table 10; assay of Biological Example 1 (THP-1); read-out: IL-1β (IC50)
COC(=O)/C=C/C(=O)OC [dimethyl fumarate, reference compound] showed an IC50 of 14.4 µM.
